According to ChEMBL document CHEMBL1201862, “PubChem BioAssay data set” (2004):
Calls of active or inactive are those of the source.

What was measured:
[1] = biological target: T1, DNA repair protein RAD52 homolog (Homo sapiens, UniProt P43351); type: functional, biochemical
T1 sequence (P43351 whole entry): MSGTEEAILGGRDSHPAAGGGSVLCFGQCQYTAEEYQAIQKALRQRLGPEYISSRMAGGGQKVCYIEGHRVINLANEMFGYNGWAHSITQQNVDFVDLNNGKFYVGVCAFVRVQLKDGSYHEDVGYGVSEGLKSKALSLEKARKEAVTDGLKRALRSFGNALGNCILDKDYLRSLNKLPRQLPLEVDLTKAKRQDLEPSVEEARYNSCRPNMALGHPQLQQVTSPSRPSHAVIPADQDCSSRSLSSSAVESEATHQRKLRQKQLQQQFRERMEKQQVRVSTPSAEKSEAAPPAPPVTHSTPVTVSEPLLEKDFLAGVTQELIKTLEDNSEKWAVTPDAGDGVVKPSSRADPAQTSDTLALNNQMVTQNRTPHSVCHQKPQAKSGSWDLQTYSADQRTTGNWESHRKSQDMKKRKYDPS

[2] = Intein inhibitors as potential Tuberculosis drugs, a cytotoxicity screen. [Related pubchem assays (depositor defined):AID2221, AID2223, AID434968, AID435010, AID449749, AID449750, AID489010]; type: functional
CAAX prenyl protease 2 = biological target: T2, CAAX prenyl protease 2 (Saccharomyces cerevisiae S288c, UniProt Q03530); type: biochemical
T2 sequence (Q03530 whole entry): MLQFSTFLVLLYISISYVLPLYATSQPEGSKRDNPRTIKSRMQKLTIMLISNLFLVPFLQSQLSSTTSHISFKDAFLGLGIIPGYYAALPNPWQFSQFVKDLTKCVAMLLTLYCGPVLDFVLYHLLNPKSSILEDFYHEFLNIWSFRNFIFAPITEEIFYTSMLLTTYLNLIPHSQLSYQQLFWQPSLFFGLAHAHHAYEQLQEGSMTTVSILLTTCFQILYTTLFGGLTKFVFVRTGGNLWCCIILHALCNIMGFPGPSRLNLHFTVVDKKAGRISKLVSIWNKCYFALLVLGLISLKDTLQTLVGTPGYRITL

Trypsin = Trypsin (Sus scrofa, UniProt P00761); assay: porcine trypsin inhibitors, dose response, selectivity assay for Rce1 protease inhibitor project, biochemical, quenched peptide fluorescence, cherry-pick (AID 488789)
Sequence of Trypsin (P00761 whole entry): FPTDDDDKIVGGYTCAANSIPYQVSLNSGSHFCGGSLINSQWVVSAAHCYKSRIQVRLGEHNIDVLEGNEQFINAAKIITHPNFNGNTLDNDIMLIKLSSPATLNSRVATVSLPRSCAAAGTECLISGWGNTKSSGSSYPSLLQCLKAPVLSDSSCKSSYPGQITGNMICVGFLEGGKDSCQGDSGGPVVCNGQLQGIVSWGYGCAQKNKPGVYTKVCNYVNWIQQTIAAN

[3] = biological target: Serine/threonine-protein phosphatase PP1-alpha catalytic subunit (Homo sapiens, UniProt P62136); assay: PP1 phosphatase inhibitors, dose response, biochemical, fluorescence (AID 2394)
Sequence of Serine/threonine-protein phosphatase PP1-alpha catalytic subunit (P62136 whole entry): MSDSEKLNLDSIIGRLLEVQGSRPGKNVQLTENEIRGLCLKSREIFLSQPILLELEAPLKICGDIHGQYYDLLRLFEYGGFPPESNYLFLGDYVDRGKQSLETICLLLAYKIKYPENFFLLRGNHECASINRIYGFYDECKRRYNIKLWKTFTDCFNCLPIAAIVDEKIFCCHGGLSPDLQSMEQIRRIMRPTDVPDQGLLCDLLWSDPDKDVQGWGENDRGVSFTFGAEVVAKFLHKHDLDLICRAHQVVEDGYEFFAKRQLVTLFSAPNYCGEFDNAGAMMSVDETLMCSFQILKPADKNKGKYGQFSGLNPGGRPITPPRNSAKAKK

Streptococcus = assay: Group A Streptococcus viability loss, dose response, counter-screen for streptokinase expression inhibitor project, luminescence, BacTiterGlo (AID 1915); type: functional, organism-based;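 further: potency for reduction of bacterial viability or growth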
[4] = biological target: T3, Histone-lysine N-methyltransferase NSD2 (Homo sapiens, UniProt O96028); type: biochemical
T3 sequence (O96028 whole entry): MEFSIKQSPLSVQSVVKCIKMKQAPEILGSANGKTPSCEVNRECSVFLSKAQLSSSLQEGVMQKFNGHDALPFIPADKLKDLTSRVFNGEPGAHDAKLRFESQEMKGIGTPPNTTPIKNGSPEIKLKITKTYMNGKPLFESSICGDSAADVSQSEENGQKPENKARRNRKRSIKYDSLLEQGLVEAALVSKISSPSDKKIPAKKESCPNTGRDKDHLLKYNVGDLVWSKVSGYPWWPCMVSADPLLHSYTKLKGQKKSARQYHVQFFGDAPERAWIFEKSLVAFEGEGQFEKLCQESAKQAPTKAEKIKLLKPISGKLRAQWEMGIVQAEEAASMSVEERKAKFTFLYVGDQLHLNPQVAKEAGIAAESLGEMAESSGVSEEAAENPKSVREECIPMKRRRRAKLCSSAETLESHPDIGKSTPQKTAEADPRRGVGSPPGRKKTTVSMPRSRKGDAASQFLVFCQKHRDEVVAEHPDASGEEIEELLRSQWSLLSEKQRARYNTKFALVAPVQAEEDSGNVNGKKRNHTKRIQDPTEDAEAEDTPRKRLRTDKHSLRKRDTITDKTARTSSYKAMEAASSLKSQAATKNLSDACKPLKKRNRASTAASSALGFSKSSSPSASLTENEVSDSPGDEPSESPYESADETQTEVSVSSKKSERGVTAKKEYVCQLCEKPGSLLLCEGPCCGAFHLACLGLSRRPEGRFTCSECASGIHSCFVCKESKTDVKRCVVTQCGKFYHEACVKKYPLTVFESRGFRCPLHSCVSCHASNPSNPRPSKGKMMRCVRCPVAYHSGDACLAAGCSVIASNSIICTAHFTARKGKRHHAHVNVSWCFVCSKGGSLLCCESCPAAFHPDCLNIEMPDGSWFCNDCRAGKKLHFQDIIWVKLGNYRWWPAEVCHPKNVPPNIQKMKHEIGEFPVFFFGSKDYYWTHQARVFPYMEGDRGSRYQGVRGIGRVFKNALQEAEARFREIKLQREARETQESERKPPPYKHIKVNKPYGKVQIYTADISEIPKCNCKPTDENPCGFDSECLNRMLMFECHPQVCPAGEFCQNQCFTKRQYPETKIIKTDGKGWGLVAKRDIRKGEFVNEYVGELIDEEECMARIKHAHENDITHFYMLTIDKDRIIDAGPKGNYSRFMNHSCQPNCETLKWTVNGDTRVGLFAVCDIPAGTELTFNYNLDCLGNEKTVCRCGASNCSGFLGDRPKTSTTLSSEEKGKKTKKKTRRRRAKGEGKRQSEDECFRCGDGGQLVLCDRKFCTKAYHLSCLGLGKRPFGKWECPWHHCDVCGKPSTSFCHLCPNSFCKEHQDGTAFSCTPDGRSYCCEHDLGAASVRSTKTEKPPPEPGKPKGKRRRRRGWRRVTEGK

[5] = biological target: Heat shock protein HSP 90-alpha (Homo sapiens, UniProt P07900); assay: Luminescence-based dose response biochemical high throughput screening assay for inhibitors of the Heat Shock Protein 90 (HSP90). [Related pubchem assays: 1831 (Summary AID.), 1846 (Confirmation screen.), 1789 (Primary screen.)]
Paired box protein Pax-8 = Paired box protein Pax-8 (Homo sapiens, UniProt Q06710); assay: inhibitors of PAX8-driven TPO luciferase reporter, dose response, RMG-I cells, cherry-pick (AID 687027); type: functional, cell-based;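 further: luciferase reporter driven by Pax8 target thyroperoxidase promoter measured by SteadyGlo luminescence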
Sequence of Paired box protein Pax-8 (Q06710 whole entry): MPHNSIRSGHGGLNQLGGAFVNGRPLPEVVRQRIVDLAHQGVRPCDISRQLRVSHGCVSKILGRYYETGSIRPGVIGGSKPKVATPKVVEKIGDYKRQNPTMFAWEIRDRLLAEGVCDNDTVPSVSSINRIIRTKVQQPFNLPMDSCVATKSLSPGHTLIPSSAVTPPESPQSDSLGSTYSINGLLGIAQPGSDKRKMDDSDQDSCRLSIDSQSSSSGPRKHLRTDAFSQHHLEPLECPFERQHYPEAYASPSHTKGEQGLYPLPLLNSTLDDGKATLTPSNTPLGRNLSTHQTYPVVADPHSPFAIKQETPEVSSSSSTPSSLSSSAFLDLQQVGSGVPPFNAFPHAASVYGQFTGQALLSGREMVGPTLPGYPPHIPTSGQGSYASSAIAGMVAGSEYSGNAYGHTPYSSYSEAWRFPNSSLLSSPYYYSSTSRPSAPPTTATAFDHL

Nonstructural protein 1 = Nonstructural protein 1 (Influenza A virus, UniProt Q194T2); type: functional, Influenza A virus (A/California/07/2009(H1N1))
Sequence of Nonstructural protein 1 (Q194T2 whole entry): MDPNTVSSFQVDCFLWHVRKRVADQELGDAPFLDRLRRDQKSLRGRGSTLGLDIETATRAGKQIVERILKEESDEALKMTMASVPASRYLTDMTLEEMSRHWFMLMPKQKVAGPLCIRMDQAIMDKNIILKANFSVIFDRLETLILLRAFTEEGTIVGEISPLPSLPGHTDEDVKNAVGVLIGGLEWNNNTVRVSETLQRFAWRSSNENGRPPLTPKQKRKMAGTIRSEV

[6] = Luminescence Cell-Based Dose Response HTS to Identify Inhibitors of 5'UTR Stem-Loop Driven Prion Protein mRNA Translation in H4 Neuroglioblastoma Cells. [Related pubchem assays: 1827 (Project Summary), 1813 (Primary HTS)]; type: functional
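Wherever CC50 is given: cells exposed to compound for 72 hours before luminescence readout.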

## COc1cc2c(cc1OC)-c1c(OC)c(OC)cc3c1C(C2)N(C)CC3 (stereo unspecified)
[1]
  AC50: 2.14 µM (active)
[2]
  CC50: > 40 µM (active)

## CCCCCCCCCCOC(=O)Cn1c(COc2cccc(OC)c2)[n+](C)c2ccccc21
CAAX prenyl protease 2
  AC50: 65.2 µM (active)
Trypsin
  AC50: 5.16 µM (active)

## CCc1ccc(S(=O)(=O)/N=C2\C=C(Nc3cccc(C(=O)O)c3)C(=O)c3ccccc32)cc1
[3]
  IC50: 22.7 µM (not active)
Streptococcus
  EC50: 1.9 µM (active)
[4]
  AC50: 0.263 µM (active)
[5]
  IC50: 0.926 µM (active)

## COc1cc(OC)c(NC2=CC(=O)C(=O)c3ccccc32)cc1Cl
Paired box protein Pax-8
  AC50: 3.4 µM (active)
Nonstructural protein 1
  IC50: > 100 µM (active)
[6]
  EC50: 3.7 µM (active)
